Data from PubChem BioAssay (NCI).
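How tested: cells in 96-well plates exposed to compound for 48 hours at five concentrations. The concentration for 50% growth inhibition is given as GI50. Definition used: TGI = concentration required for complete inhibition of growth.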

Key:
Experiment in all cases: growth of human tumour cells (NCI), 48 h
MOLT-4 leukemia = tested on: MOLT-4 leukemia
ACHN renal = tested on: ACHN renal
NCI-H522 lung = tested on: NCI-H522 lung
NCI-H226 lung = tested on: NCI-H226 lung
UACC-62 melanoma = tested on: UACC-62 melanoma
RPMI-8226 leukemia = tested on: RPMI-8226 leukemia
A549 NSCLC = tested on: A549 NSCLC
HCT-15 colon = tested on: HCT-15 colon
MDA-MB-435 = tested on: MDA-MB-435
U251 CNS = tested on: U251 CNS
EKVX NSCLC = tested on: EKVX NSCLC
SK-OV-3 ovarian = tested on: SK-OV-3 ovarian
786-0 renal = tested on: 786-0 renal
SF-539 CNS = tested on: SF-539 CNS
HT29 colon = tested on: HT29 colon
OVCAR-4 ovarian = tested on: OVCAR-4 ovarian
MCF7 breast = tested on: MCF7 breast
TK-10 renal = tested on: TK-10 renal
MDA-MB-231 breast = tested on: MDA-MB-231 breast
K-562 leukemia = tested on: K-562 leukemia
NCI/ADR-RES ovarian = tested on: NCI/ADR-RES ovarian
SK-MEL-28 melanoma = tested on: SK-MEL-28 melanoma
HS 578T breast = tested on: HS 578T breast
CAKI-1 renal = tested on: CAKI-1 renal
IGROV1 ovarian = tested on: IGROV1 ovarian
SK-MEL-5 melanoma = tested on: SK-MEL-5 melanoma
HCT-116 colon = tested on: HCT-116 colon
UO-31 renal = tested on: UO-31 renal
OVCAR-8 ovarian = tested on: OVCAR-8 ovarian
SF-295 CNS = tested on: SF-295 CNS
CCRF-CEM leukemia = tested on: CCRF-CEM leukemia
SW-620 colon = tested on: SW-620 colon
SK-MEL-2 melanoma = tested on: SK-MEL-2 melanoma
A498 renal = tested on: A498 renal
OVCAR-3 ovarian = tested on: OVCAR-3 ovarian
PC-3 prostate = tested on: PC-3 prostate
HL-60(TB) leukemia = tested on: HL-60(TB) leukemia
OVCAR-5 ovarian = tested on: OVCAR-5 ovarian
MDA-MB-468 breast = tested on: MDA-MB-468 breast
DU-145 prostate = tested on: DU-145 prostate
NCI-H23 lung = tested on: NCI-H23 lung
KM12 colon = tested on: KM12 colon
HOP-92 NSCLC = tested on: HOP-92 NSCLC
SF-268 CNS = tested on: SF-268 CNS
SNB-75 CNS = tested on: SNB-75 CNS
SN12C renal = tested on: SN12C renal
LOX IMVI melanoma = tested on: LOX IMVI melanoma
SNB-19 CNS = tested on: SNB-19 CNS
NCI-H460 lung = tested on: NCI-H460 lung
M14 melanoma = tested on: M14 melanoma
T-47D breast = tested on: T-47D breast
RXF 393 renal = tested on: RXF 393 renal
COLO 205 colon = tested on: COLO 205 colon
UACC-257 melanoma = tested on: UACC-257 melanoma
HOP-62 NSCLC = tested on: HOP-62 NSCLC
SR leukemia = tested on: SR leukemia
MALME-3M melanoma = tested on: MALME-3M melanoma
HCC-2998 colon = tested on: HCC-2998 colon
BT-549 breast = tested on: BT-549 breast

In the case of `O=c1[nH]c2ccc(Cl)cc2cc1CSc1ccc(Nc2nccc(-c3ccc(Cl)cc3)n2)cc1`, the GI50 (MOLT-4 leukemia) is reported as 13.5 µM, the TGI (MOLT-4 leukemia) is reported as > 100 µM and the GI50 (ACHN renal) is reported as 22 µM. The TGI (ACHN renal) was 56.1 µM, the GI50 (NCI-H522 lung) was 20.1 µM and the TGI (NCI-H522 lung) was 51.7 µM. It also gave a GI50 (NCI-H226 lung) of 16.5 µM, a TGI (NCI-H226 lung) of 45.1 µM and a GI50 (UACC-62 melanoma) of 19.6 µM. The TGI (UACC-62 melanoma) was 45.4 µM, the GI50 (RPMI-8226 leukemia) was 86.6 µM and the TGI (RPMI-8226 leukemia) was > 100 µM. The GI50 (A549 NSCLC) was 16.9 µM, the TGI (A549 NSCLC) was 41.2 µM and the GI50 (HCT-15 colon) was 6.64 µM. It also gave a TGI (HCT-15 colon) of 24.5 µM, a GI50 (MDA-MB-435) of 15.3 µM and a TGI (MDA-MB-435) of 40.9 µM. It also gave a GI50 (U251 CNS) of 16.5 µM, a TGI (U251 CNS) of 36.1 µM and a GI50 (EKVX NSCLC) of 28.1 µM. The TGI (EKVX NSCLC) was > 100 µM, the GI50 (SK-OV-3 ovarian) was 18.7 µM and the TGI (SK-OV-3 ovarian) was 39 µM. For the same molecule, the GI50 (786-0 renal) was 17.4 µM, the TGI (786-0 renal) was 34.3 µM and the GI50 (SF-539 CNS) was 15.1 µM. For the same molecule, the TGI (SF-539 CNS) was 31.1 µM, the GI50 (HT29 colon) was 13.8 µM and the TGI (HT29 colon) was > 100 µM. The GI50 (OVCAR-4 ovarian) was 16.9 µM, the TGI (OVCAR-4 ovarian) was 51 µM and the GI50 (MCF7 breast) was 5.65 µM. It also gave a TGI (MCF7 breast) of 28.5 µM, a GI50 (TK-10 renal) of 18.6 µM and a TGI (TK-10 renal) of 36.2 µM. For the same molecule, the GI50 (MDA-MB-231 breast) was 12.4 µM, the TGI (MDA-MB-231 breast) was 28 µM and the GI50 (K-562 leukemia) was 15.8 µM. The TGI (K-562 leukemia) was > 100 µM, the GI50 (NCI/ADR-RES ovarian) was 14.8 µM and the TGI (NCI/ADR-RES ovarian) was 42 µM. The GI50 (SK-MEL-28 melanoma) was 22.6 µM, the TGI (SK-MEL-28 melanoma) was 72.3 µM and the GI50 (HS 578T breast) was 17.3 µM. The TGI (HS 578T breast) was 52 µM, the GI50 (CAKI-1 renal) was 15.6 µM and the TGI (CAKI-1 renal) was 38.4 µM. The GI50 (IGROV1 ovarian) was 22.7 µM, the TGI (IGROV1 ovarian) was 52.5 µM and the GI50 (SK-MEL-5 melanoma) was 25.5 µM. The TGI (SK-MEL-5 melanoma) was 99.2 µM, the GI50 (HCT-116 colon) was 10.6 µM and the TGI (HCT-116 colon) was 26.7 µM. For the same molecule, the GI50 (UO-31 renal) was 29 µM, the TGI (UO-31 renal) was > 100 µM and the GI50 (OVCAR-8 ovarian) was 23.4 µM. For the same molecule, the TGI (OVCAR-8 ovarian) was 72.6 µM, the GI50 (SF-295 CNS) was 17.6 µM and the TGI (SF-295 CNS) was 36.9 µM. For the same molecule, the GI50 (CCRF-CEM leukemia) was 13.4 µM, the TGI (CCRF-CEM leukemia) was > 100 µM and the GI50 (SW-620 colon) was 4.42 µM. For the same molecule, the TGI (SW-620 colon) was 20 µM, the GI50 (SK-MEL-2 melanoma) was 20 µM and the TGI (SK-MEL-2 melanoma) was 43 µM. For the same molecule, the GI50 (A498 renal) was 20 µM, the TGI (A498 renal) was 43.7 µM and the GI50 (OVCAR-3 ovarian) was 19.1 µM. For the same molecule, the TGI (OVCAR-3 ovarian) was 37.1 µM, the GI50 (PC-3 prostate) was 9.22 µM and the TGI (PC-3 prostate) was 27.8 µM. The GI50 (HL-60(TB) leukemia) was 42.9 µM, the TGI (HL-60(TB) leukemia) was > 100 µM and the GI50 (OVCAR-5 ovarian) was 57.8 µM. The TGI (OVCAR-5 ovarian) was > 100 µM, the GI50 (MDA-MB-468 breast) was 10.6 µM and the TGI (MDA-MB-468 breast) was 25.3 µM. For the same molecule, the GI50 (DU-145 prostate) was 15.1 µM, the TGI (DU-145 prostate) was 61.7 µM and the GI50 (NCI-H23 lung) was 15.3 µM. For the same molecule, the TGI (NCI-H23 lung) was 30 µM, the GI50 (KM12 colon) was 30.5 µM and the TGI (KM12 colon) was > 100 µM. For the same molecule, the GI50 (HOP-92 NSCLC) was 15.9 µM, the TGI (HOP-92 NSCLC) was 38.3 µM and the GI50 (SF-268 CNS) was 15.3 µM. For the same molecule, the TGI (SF-268 CNS) was 40.1 µM, the GI50 (SNB-75 CNS) was 11.4 µM and the TGI (SNB-75 CNS) was 29.7 µM. The GI50 (SN12C renal) was > 100 µM, the TGI (SN12C renal) was > 100 µM and the GI50 (LOX IMVI melanoma) was 20.6 µM. For the same molecule, the TGI (LOX IMVI melanoma) was 60.9 µM, the GI50 (SNB-19 CNS) was 15.8 µM and the TGI (SNB-19 CNS) was 31.5 µM. For the same molecule, the GI50 (NCI-H460 lung) was 6.2 µM, the TGI (NCI-H460 lung) was 25.5 µM and the GI50 (M14 melanoma) was 19.1 µM. For the same molecule, the TGI (M14 melanoma) was 50.5 µM, the GI50 (T-47D breast) was 29.6 µM and the TGI (T-47D breast) was > 100 µM. For the same molecule, the GI50 (RXF 393 renal) was 12 µM, the TGI (RXF 393 renal) was 26.4 µM and the GI50 (COLO 205 colon) was 40.5 µM. For the same molecule, the TGI (COLO 205 colon) was > 100 µM, the GI50 (UACC-257 melanoma) was > 100 µM and the TGI (UACC-257 melanoma) was > 100 µM. The GI50 (HOP-62 NSCLC) was 16.5 µM, the TGI (HOP-62 NSCLC) was 31.7 µM and the GI50 (SR leukemia) was 69.5 µM. The TGI (SR leukemia) was > 100 µM, the GI50 (MALME-3M melanoma) was 19.1 µM and the TGI (MALME-3M melanoma) was 50.1 µM. For the same molecule, the GI50 (HCC-2998 colon) was 25.3 µM, the TGI (HCC-2998 colon) was > 100 µM and the GI50 (BT-549 breast) was 15.5 µM. The TGI (BT-549 breast) was 31.8 µM.
